This is an account of results in ChEMBL document CHEMBL1201862, “PubChem BioAssay data set” (2004).

Test systems include CAKI-1; CCRF-CEM; DU-145; HCC 2998; HT-29; Hs-578T; K562; MCF7; MDA-MB-231; MDA-MB-435; NCI-H23; NCI-H460; OVCAR-5; SF-295; SK-MEL-2; SW-620; T47D; U-251; SR.
Assay in all cases: growth of human tumour cells (NCI), 48 h

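Briefly, cells in 96-well plates were exposed to five compound concentrations for 48 h, and endpoints were estimated by linear interpolation. GI50 marks 50% less growth.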 The source made the active and inactive calls. No stated cut-off is given here; in the data, active = GI50 up to about 1.1 µM and inactive = higher. Starred links: 1 amine or outer side, 2 acyl side, 3 side chain; linkers in the order of their positions; H or OH if unused. Residues, ends and D or L forms follow the SMILES beside them. Peptide text beside a SMILES is read from it. * marks the point of attachment. *: point of attachment. γGlu = O=C(O)[CH](CCC(=O)[*:2])N[*:1]; Cbz = O=C(OCc1ccccc1)*; NHNH2 = NN*; NHOH = ON*

Take `CCOC(=O)CNC(=O)C(CCC(=O)NO)NC(=O)CCC(N)C(=O)O` (stereo not drawn) (γGlu-Glu(NHOH)-Gly-OEt; configuration not given here): the GI50 with CAKI-1, in the assay on CCRF-CEM, in the assay with DU-145, in the assay with HCC 2998, in the assay on HT-29 and in the assay with Hs-578T was > 100 µM (inactive) throughout. In addition, the GI50 in the assay with K562, with MCF7, in the assay on MDA-MB-231, in the assay on MDA-MB-435, in the assay with NCI-H23 and in the assay with NCI-H460 was > 100 µM (inactive) in each case. The GI50 in the assay with OVCAR-5, with SF-295, with SK-MEL-2, in the assay with SW-620, in the assay with T47D and in the assay with U-251 was > 100 µM (inactive) in each case.
For `Cc1cc(C)nc(NS(=O)(=O)c2ccc(NN=c3c4ccccc4n(C)c4ccccc34)cc2)n1`, the GI50 with CAKI-1 is 21.5 µM (inactive); in the assay on CCRF-CEM, 15.7 µM (inactive); with DU-145 it was 37 µM (inactive); in the assay with HCC 2998, 28.3 µM (inactive); with HT-29, 33.3 µM (inactive); with Hs-578T it was 32.4 µM (inactive). Besides, the GI50 is 16.7 µM (inactive) in the assay on K562; 17.3 µM (inactive) with MCF7; 21.3 µM (inactive) with MDA-MB-231; 23.8 µM (inactive) in the assay with MDA-MB-435; 25.6 µM (inactive) with NCI-H23; 29.6 µM (inactive) in the assay on NCI-H460. In addition, the GI50 is 26.9 µM (inactive) with OVCAR-5; 44.7 µM (inactive) in the assay with SF-295; 15.1 µM (inactive) with SK-MEL-2; 26.1 µM (inactive) in the assay on SW-620; 13.9 µM (inactive) in the assay with T47D; 34.5 µM (inactive) with U-251.
`Cc1ccc(C(=O)O)c(/C=C2\Cc3ccc(C)cc3C2=O)c1`: the GI50 with CAKI-1 is 44.3 µM (inactive); with CCRF-CEM it was 51.3 µM (inactive); in the assay with DU-145, 79.8 µM (inactive); in the assay with HCC 2998, 38.9 µM (inactive); in the assay on HT-29 it was 34.8 µM (inactive); in the assay with Hs-578T, 64.3 µM (inactive). Also, the GI50 with K562 was 39.9 µM (inactive); with MCF7, 63.5 µM (inactive); in the assay on MDA-MB-435, 38 µM (inactive); in the assay on NCI-H23, 75.3 µM (inactive); in the assay with NCI-H460, 56.4 µM (inactive); in the assay with OVCAR-5, 28.4 µM (inactive). For the same compound, the GI50 is 38.1 µM (inactive) in the assay with SF-295; 32 µM (inactive) in the assay with SK-MEL-2; 32.5 µM (inactive) in the assay with SR; > 100 µM (inactive) in the assay with SW-620; 92 µM (inactive) with T47D; 34 µM (inactive) with U-251.
For the compound `CC(=O)N[C@@H](Cc1ccc(O)cn1)C(=O)NCc1ccc2c(c1)OCO2`, the GI50 in the assay with CAKI-1, with CCRF-CEM, in the assay with DU-145, with HCC 2998, in the assay on HT-29 and in the assay with Hs-578T was > 100 µM (inactive) in each case. In addition, the GI50 with K562, in the assay on MCF7, in the assay with MDA-MB-435, in the assay on NCI-H23, with NCI-H460 and with OVCAR-5 was > 100 µM (inactive) in each case. In addition, the GI50 in the assay with SF-295, with SK-MEL-2, in the assay with SR, in the assay with SW-620, in the assay with T47D and in the assay on U-251 was > 100 µM (inactive) each time.
Regarding `Cc1ccc(S(=O)(=O)NC(=O)NCCC(=O)O)cc1`, the GI50 in the assay on CCRF-CEM, in the assay on DU-145, in the assay on HT-29, in the assay with Hs-578T, in the assay with K562 and in the assay with MCF7 was > 100 µM (inactive) throughout. Besides, the GI50 in the assay on MDA-MB-231 was > 100 µM (inactive); in the assay on NCI-H23, 19.3 µM (inactive); in the assay on NCI-H460, > 100 µM (inactive); with OVCAR-5, > 100 µM (inactive); in the assay on SF-295, > 100 µM (inactive); in the assay with SK-MEL-2 it was > 100 µM (inactive). The GI50 with SR, in the assay on SW-620, in the assay with T47D and in the assay on U-251 was > 100 µM (inactive) each time.
For the compound `Cn1c(=O)c2nc(CCCCC(=O)O)[nH]c2n(C)c1=O`, the GI50 was > 100 µM (inactive) in the assay on CAKI-1; > 100 µM (inactive) with CCRF-CEM; > 100 µM (inactive) with DU-145; > 100 µM (inactive) in the assay on HCC 2998; > 100 µM (inactive) in the assay on HT-29; 68.5 µM (inactive) with Hs-578T. The GI50 in the assay on MDA-MB-231, with MDA-MB-435, in the assay with NCI-H23, in the assay with NCI-H460, in the assay on OVCAR-5 and in the assay on SF-295 was > 100 µM (inactive) each time. For the same compound, the GI50 in the assay with SK-MEL-2, in the assay with SW-620, with T47D and in the assay on U-251 was > 100 µM (inactive) in each case.
On to `O=[N+]([O-])c1ccc(-c2nn3c(C45CC6CC(CC(C6)C4)C5)nnc3s2)c(Cl)c1`, for which the GI50 with CAKI-1, with CCRF-CEM, in the assay on DU-145, with HCC 2998, in the assay on HT-29 and with Hs-578T was > 100 µM (inactive) throughout. The GI50 in the assay on K562, in the assay with MDA-MB-231, with MDA-MB-435, in the assay with NCI-H23, in the assay with NCI-H460 and with OVCAR-5 was > 100 µM (inactive) each time. Besides, the GI50 in the assay on SF-295, in the assay with SK-MEL-2, in the assay on SR, with SW-620, in the assay on T47D and with U-251 was > 100 µM (inactive) throughout.
In the case of `N#Cc1[nH]c(=O)n(-c2ccccc2)c1N`, the GI50 in the assay with CCRF-CEM, in the assay on DU-145, in the assay on HCC 2998, in the assay with HT-29, in the assay with Hs-578T and in the assay on K562 was > 10 µM (inactive) each time. In addition, the GI50 is > 10 µM (inactive) with MDA-MB-231; > 10 µM (inactive) in the assay on MDA-MB-435; > 10 µM (inactive) with NCI-H23; > 10 µM (inactive) in the assay on NCI-H460; 0.141 µM (active) in the assay on OVCAR-5; 0.279 µM (active) in the assay with SF-295. Further, the GI50 in the assay with SK-MEL-2, in the assay with SR, in the assay on SW-620, in the assay with T47D and in the assay on U-251 was > 10 µM (inactive) each time.
As for `CC1=C/C(=N/N2C(=O)/C(=C/c3ccc(Cl)cc3)N=C2c2ccccc2)CC(C)(C)C1`, the GI50 was > 100 µM (inactive) in the assay with CAKI-1; > 100 µM (inactive) in the assay on HCC 2998; 70.5 µM (inactive) in the assay on HT-29; 52 µM (inactive) in the assay with Hs-578T; 66.4 µM (inactive) with K562; 49.8 µM (inactive) in the assay with MCF7. The GI50 with MDA-MB-231 is > 100 µM (inactive); in the assay on MDA-MB-435, 51.3 µM (inactive); in the assay with NCI-H23, > 100 µM (inactive); in the assay on NCI-H460, > 100 µM (inactive); in the assay with OVCAR-5 it was > 100 µM (inactive); in the assay on SF-295 it was 51.9 µM (inactive). Besides, the GI50 with SK-MEL-2 is 24.9 µM (inactive); in the assay on SR, 31 µM (inactive); with SW-620, 76.2 µM (inactive); with T47D, 85.9 µM (inactive); with U-251, 21.5 µM (inactive).
Regarding `COC(=O)CC(NC(=O)OCc1ccccc1)C(=O)NC(CC(=O)OC)C(=O)NC(CC(=O)OC)C(=O)NC(CC(=O)OC)C(=O)NC(CC(=O)OC)C(=O)NC(CC(=O)OC)C(=O)NN` (stereo not drawn) (Cbz-D(OMe)D(OMe)D(OMe)D(OMe)D(OMe)D(OMe)-NHNH2; configuration not given here), the GI50 in the assay with CCRF-CEM, in the assay with HCC 2998, with HT-29, in the assay on Hs-578T, with K562 and with MCF7 was > 100 µM (inactive) in each case. For the same compound, the GI50 in the assay with MDA-MB-231, in the assay with MDA-MB-435, in the assay on NCI-H460, in the assay on OVCAR-5, in the assay on SF-295 and with SK-MEL-2 was > 100 µM (inactive) each time. The GI50 with SR, in the assay on SW-620, with T47D and with U-251 was > 100 µM (inactive) in each case.
Consider `Cc1ccc(/N=N/c2c(O)ccc3ccccc23)cc1`, for which the GI50 with CAKI-1 was > 100 µM (inactive); in the assay on CCRF-CEM it was 27.1 µM (inactive); in the assay on DU-145, > 100 µM (inactive); in the assay with HT-29, > 100 µM (inactive); with Hs-578T, > 100 µM (inactive); in the assay on K562 it was > 10 µM (inactive). For the same compound, the GI50 in the assay with MDA-MB-231, in the assay on MDA-MB-435, in the assay on NCI-H23, in the assay with OVCAR-5, with SF-295 and in the assay on SK-MEL-2 was > 100 µM (inactive) in each case. Further, the GI50 in the assay on SR is 11.7 µM (inactive); in the assay on SW-620, 63.4 µM (inactive); with T47D, > 100 µM (inactive); in the assay with U-251, 53.6 µM (inactive).
